Results published in patent publication US20240025862A1, “SUBSTITUTED N-PHENYLURACILS AND SALTS THEREOF, AND USE THEREOF AS HERBICIDAL ACTIVE SUBSTANCES” (Bayer Aktiengesellschaft, priority 2020, published 2024).
Values belong to the compound of their own block, whether it stands above or below them.

Key:
Assay type in all cases: in vivo
Oryza sativa (ORYSA) = assay: Post-emergence crop plant compatibility, greenhouse pot test (also comparative test C); details: for Post-emergence action against ORYSA (crop plant compatibility): vs untreated controls
Procedure, shortened: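 Rice and other crops sprayed post-emergence at one-leaf stage (2–3 weeks after sowing) with WP or EC formulations plus 0.5% additive at 600 l/ha water. Visual rating about 3 weeks later versus untreated controls (100% = dead, 0% = like control); suffixes a–c denote different doses.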

[1] = test system: Polygonum convolvulus (POLCO); assay: Post-emergence herbicidal action, greenhouse pot test
Procedure, shortened: (§1)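 Greenhouse-grown weeds in sandy loam were sprayed post-emergence at the one-leaf stage, 2–3 weeks after sowing. Compounds were formulated as WP or EC in water with 0.5% additive at 600 l/ha, at rates of 20 g/ha or less. Visual rating after about 3 weeks used a scale from 0% (like untreated control) to 100% (plants dead).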

[2] = test system: Amaranthus retroflexus (AMARE); assay: as above; details: rated visually after about 3 weeks vs untreated controls, 100% = plants have died
Procedure, shortened: as §1

[3] = test system: Pharbitis purpurea (PHBPU); assay: as above
Procedure, shortened: as §1

Viola tricolor (VIOTR) = assay: as above
Procedure, shortened: as §1

[4] = test system: Abutilon theophrasti (ABUTH); assay: as above; details: rated visually after about 3 weeks vs untreated controls, 100% = plants have died
Procedure, shortened: as §1

Stellaria media (STEME) = assay: as above
Procedure, shortened: as §1

Veronica persica (VERPE) = assay: as above
Procedure, shortened: as §1

[5] = test system: Matricaria inodora (MATIN); assay: Post-emergence herbicidal action, greenhouse pot test (also comparative test C)
Procedure, shortened: (§2)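 Green parts of one-leaf-stage plants are sprayed at 600 l/ha with formulated compound plus 0.5% additive, then kept under optimum greenhouse conditions for about 3 weeks. Damage is scored visually, where 100% means dead plants and 0% means no difference from controls.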

[6] = test system: Echinochloa crus-galli (ECHCG); assay: as above
Procedure, shortened: as §2

[7] = test system: Alopecurus myosuroides (ALOMY); assay: as above
Procedure, shortened: as §2

Setaria viridis (SETVI) = assay: as above; details: for Post-emergence action against SETVI: 20 g/ha
Procedure, shortened: as §2

[8] = test system: Triticum aestivum (TRZAS); assay: Post-emergence crop plant compatibility, greenhouse pot test; details: vs untreated controls
Procedure, shortened: (§3)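 Greenhouse-grown crop plants sprayed post-emergence at the one-leaf stage with WP or EC formulations plus 0.5% additive, at 600 l/ha water. Damage rated visually after about 3 weeks versus untreated controls (0% = like control, 100% = dead); suffixes a/b/c denote different dosages.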

Brassica napus (BRSNW) = assay: as above; details: 1.25 g/ha, vs untreated controls
Procedure, shortened: as §3

Glycine max (GLXMA) = assay: as above
Procedure, shortened: as §3

Avena fatua (AVEFA) = assay: Post-emergence herbicidal action, greenhouse pot test; details: 20 g/ha, rated visually after about 3 weeks vs untreated controls, 100% = plants have died
Procedure, shortened: as §1

Zea mays (ZEAMX) = assay: Post-emergence crop plant compatibility, greenhouse pot test; details: 1.25 g/ha, vs untreated controls
Procedure, shortened: as §3

[9] = rated visually after about 3 weeks vs untreated controls, 100% = plants have died
[10] = application rate of 5 g or less per hectare, tables C1 to C4
[11] = comparative test C, application rate 1.25 g/ha

- Post-emergence action against ORYSA (crop plant compatibility) (Oryza sativa (ORYSA); 1.25 g/ha): 10%
- Post-emergence action against ORYSA (crop plant compatibility) (Oryza sativa (ORYSA); 5 g/ha): 10%
- Post-emergence action against ORYSA in % (Oryza sativa (ORYSA); 20 g/ha, crop plant compatibility): 20%
- Post-emergence action against TRZAS (crop plant compatibility) ([8]; 1.25 g/ha): 20%
- Post-emergence action against TRZAS (crop plant compatibility) ([8]; 5 g/ha): 20%
- Post-emergence action against BRSNW (crop plant compatibility) (Brassica napus (BRSNW)): 10%
- Post-emergence action against GLXMA in % (Glycine max (GLXMA); 1.25 g/ha): 0%
- Post-emergence action against GLXMA in % (Glycine max (GLXMA); 5 g/ha): 0%
- Post-emergence action against GLXMA in % (Glycine max (GLXMA); 20 g/ha): 10%
Structure (SMILES): CCOCCOC(=O)C(C)Oc1ccccc1Sc1cc(-n2c(=O)cc(C(F)(F)F)n(C)c2=O)c(F)cc1Cl (racemic) [I.2-2]
- Post-emergence action against POLCO in % ([1]; dosage 5 g/ha): 100%
- Post-emergence action against POLCO in % ([1]; dosage 20 g/ha): 100%
- Post-emergence action at 1.25 g/ha against AMARE in % [2]: 100%
- Post-emergence action at 5 g/ha against AMARE in % [2]: 100%
- Post-emergence action at 20 g/ha against AMARE in % [2]: 100%
- Post-emergence action against PHBPU in % ([3]; dosage 1.25 g/ha): 100%
- Post-emergence action against PHBPU in % ([3]; dosage 5 g/ha): 100%
- Post-emergence action against PHBPU in % ([3]; dosage 20 g/ha): 100%
- Post-emergence action against VIOTR (Viola tricolor (VIOTR); 1.25 g/ha): 100%
- Post-emergence action against VIOTR (Viola tricolor (VIOTR); 5 g/ha): 100%
- Post-emergence action against VIOTR (Viola tricolor (VIOTR); 20 g/ha): 100%
- Post-emergence action at 1.25 g/ha against ABUTH in % [4]: 80%
- Post-emergence action at 5 g/ha against ABUTH in % [4]: 100%
- Post-emergence action at 20 g/ha against ABUTH in % [4]: 100%
- Post-emergence action against STEME (Stellaria media (STEME); 5 g/ha): 100%
- Post-emergence action against STEME (Stellaria media (STEME); 20 g/ha): 100%
- Post-emergence action against VERPE (Veronica persica (VERPE); 1.25 g/ha): 100%
- Post-emergence action against VERPE (Veronica persica (VERPE); 5 g/ha): 100%
- Post-emergence action against VERPE (Veronica persica (VERPE); 20 g/ha): 100%
- Post-emergence action against MATIN in % ([5]; dosage 5 g/ha): 80%
- Post-emergence action against MATIN in % ([5]; dosage 20 g/ha): 100%
- Post-emergence action against ECHCG in % ([6]; dosage 20 g/ha): 90%
- Post-emergence action at 20 g/ha against ALOMY in % [7, 9]: 80%
- Post-emergence action against SETVI (Setaria viridis (SETVI)): 100%
- Post-emergence action against SETVI in % (Setaria viridis (SETVI); dosage 1.25 g/ha): 100%
- Post-emergence action against SETVI in % (Setaria viridis (SETVI); dosage 5 g/ha): 100%

- Post-emergence action against ORYSA (crop plant compatibility) (Oryza sativa (ORYSA); 1.25 g/ha): 0%
- compatibility with respect to the crop plant Oryza sativa (ORYSA) by comparison with literature compound a-17 / 3-14 (Oryza sativa (ORYSA); application rate of 1.25 g per hectare, table C5): distinct improvement in compatibility
- ORYSA (efficacy in %) (Oryza sativa (ORYSA); comparative test C, application rate 1.25 g/ha, crop plant compatibility): 0%
- Post-emergence action against ZEAMX (crop plant compatibility) (Zea mays (ZEAMX)): 20%
- Post-emergence action against TRZAS (crop plant compatibility) ([8]; 1.25 g/ha): 0%
- Post-emergence action against BRSNW (crop plant compatibility) (Brassica napus (BRSNW)): 20%
Structure (SMILES): Cn1c(C(F)(F)F)cc(=O)n(-c2cc(Oc3ccccc3OCC(=O)OC3COC3)c(Cl)cc2F)c1=O [I.7-115]
- Post-emergence action against POLCO in % ([1]; dosage 5 g/ha): 100%
- Post-emergence action against POLCO in % ([1]; dosage 20 g/ha): 100%
- Post-emergence action at 20 g/ha against AVEFA in % (Avena fatua (AVEFA)): 100%
- Post-emergence action at 1.25 g/ha against AMARE in % [2]: 100%
- Post-emergence action at 5 g/ha against AMARE in % [2]: 100%
- Post-emergence action at 20 g/ha against AMARE in % [2]: 100%
- Post-emergence action against PHBPU in % ([3]; dosage 1.25 g/ha): 100%
- Post-emergence action against PHBPU in % ([3]; dosage 5 g/ha): 100%
- Post-emergence action against PHBPU in % ([3]; dosage 20 g/ha): 100%
- Post-emergence action against VIOTR (Viola tricolor (VIOTR); 1.25 g/ha): 100%
- Post-emergence action against VIOTR (Viola tricolor (VIOTR); 5 g/ha): 100%
- Post-emergence action against VIOTR (Viola tricolor (VIOTR); 20 g/ha): 100%
- Post-emergence action at 1.25 g/ha against ABUTH in % [4]: 80%
- Post-emergence action at 5 g/ha against ABUTH in % [4]: 100%
- Post-emergence action at 20 g/ha against ABUTH in % [4]: 100%
- Post-emergence action against VERPE (Veronica persica (VERPE); 1.25 g/ha): 100%
- Post-emergence action against VERPE (Veronica persica (VERPE); 5 g/ha): 100%
- Post-emergence action against VERPE (Veronica persica (VERPE); 20 g/ha): 100%
- herbicidal efficacy against MATIN by comparison with literature compound a-17 / 3-14 [5, 10]: distinct improvement in herbicidal efficacy
- MATIN (efficacy in %) [5, 11]: 100%
- Post-emergence action against MATIN in % ([5]; dosage 1.25 g/ha): 100%
- Post-emergence action against MATIN in % ([5]; dosage 5 g/ha): 100%
- Post-emergence action against MATIN in % ([5]; dosage 20 g/ha): 100%
- Post-emergence action at 1.25 g/ha against ECHCG in % ([6]; 1.25 g/ha, rated visually after about 3 weeks vs untreated controls, 100% = plants have died): 100%
- herbicidal efficacy against ECHCG by comparison with literature compound a-17 / 3-14 [6, 10]: distinct improvement in herbicidal efficacy
- ECHCG (efficacy in %) [6, 11]: 100%
- Post-emergence action against ECHCG in % ([6]; dosage 5 g/ha): 100%
- Post-emergence action against ECHCG in % ([6]; dosage 20 g/ha): 100%
- Post-emergence action at 5 g/ha against ALOMY in % ([7]; 5 g/ha, rated visually after about 3 weeks vs untreated controls, 100% = plants have died): 100%
- Post-emergence action at 20 g/ha against ALOMY in % [7, 9]: 100%
- herbicidal efficacy against ALOMY by comparison with literature compound a-17 / 3-14 [7, 10]: distinct improvement in herbicidal efficacy
- Post-emergence action against SETVI (Setaria viridis (SETVI)): 100%
- herbicidal efficacy against SETVI by comparison with literature compound a-17 / 3-14 (Setaria viridis (SETVI); [10]): distinct improvement in herbicidal efficacy
- SETVI (efficacy in %) (Setaria viridis (SETVI); [11]): 100%
- Post-emergence action against SETVI in % (Setaria viridis (SETVI); dosage 1.25 g/ha): 100%
- Post-emergence action against SETVI in % (Setaria viridis (SETVI); dosage 5 g/ha): 100%
